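Following 48 hours of exposure in 96-well plates, responses at five concentrations were used to interpolate endpoints linearly. GI50 is the concentration that inhibits growth by half. Definition used: TGI = concentration required for complete inhibition of growth.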
Tests used:
Assay in all cases: DTP human tumour cell line panel, 48 h
T-47D breast = tested on: T-47D breast
LOX IMVI melanoma = tested on: LOX IMVI melanoma
HS 578T breast = tested on: HS 578T breast
786-0 renal = tested on: 786-0 renal
SW-620 colon = tested on: SW-620 colon
NCI-H522 lung = tested on: NCI-H522 lung
HL-60(TB) leukemia = tested on: HL-60(TB) leukemia
SN12C renal = tested on: SN12C renal
DU-145 prostate = tested on: DU-145 prostate
BT-549 breast = tested on: BT-549 breast

SMILES | GI50 (T-47D breast) [µM] | TGI (T-47D breast) [µM] | GI50 (LOX IMVI melanoma) [µM] | TGI (LOX IMVI melanoma) [µM] | GI50 (HS 578T breast) [µM] | TGI (HS 578T breast) [µM] | GI50 (786-0 renal) [µM] | TGI (786-0 renal) [µM] | GI50 (SW-620 colon) [µM] | TGI (SW-620 colon) [µM] | GI50 (NCI-H522 lung) [µM] | TGI (NCI-H522 lung) [µM] | GI50 (HL-60(TB) leukemia) [µM] | TGI (HL-60(TB) leukemia) [µM] | GI50 (SN12C renal) [µM] | TGI (SN12C renal) [µM] | GI50 (DU-145 prostate) [µM] | TGI (DU-145 prostate) [µM] | GI50 (BT-549 breast) [µM] | TGI (BT-549 breast) [µM]
Cn1cc(C2=C(c3c(S(C)=O)n(C)c4ccccc34)C(=O)NC2=O)c2ccccc21 (stereo not given) | 8.35 | > 25 | 13.7 | > 25 | 5.57 | 24.9 | > 19.9 | > 25 | 7.78 | > 25 | 4.47 | > 23.4 | 5.39 | 17.7 | 14 | > 25 | 8.9 | > 25 | 4.88 | > 25
CC(C)[C@H](C(=O)O[C@@H]1/C=C/C(=O)O[C@@H](C)CCC/C=C/[C@@H]2C[C@H](O)C[C@H]21)N(C)C | 31 | > 100 | 9.59 | 26.9 | 2.2 | 45.9 | 6.15 | 21.1 | 6.35 | 21.8 | 26.5 | > 68.8 | 28.2 | 50.7 | 26.7 | > 68.7 | 31.5 | > 100 | 7.13 | 35.6
CCCCCCSc1nc(COC(=O)NC)c(COC(=O)NC)n1C |  | > 100 |  | > 100 |  | > 100 |  | > 100 |  | > 100 |  | > 100 |  | > 100 |  | > 100 |  | > 100 |  | > 100
CCCc1n(Cc2ccc3ccccc3n2)cc[n+]1Cc1ccc2ccccc2n1 | 0.416 | 5.03 | 2.43 | 10.9 | 3.54 | 23 | 11.2 | 24.2 | 3.63 | 25 | 0.438 | 5.07 | 0.34 | 1.69 | 2.23 | 11.8 | 4.22 | 31.2 | 1.3 | 8
Cc1cc2c(cc1Cl)N1C(=O)NS(=O)(=O)N=C1NS2(=O)=O | > 100 | > 100 | > 100 | > 100 | > 100 | > 100 | > 100 | > 100 | > 100 | > 100 | > 100 | > 100 | > 100 | > 100 | > 100 | > 100 | > 100 | > 100 | > 100 | > 100
COc1cc(/C=C/c2ccccn2)cc(OC)c1OC |  | > 10 |  | > 10 |  | > 10 |  | > 10 |  | > 10 |  | > 10 |  | > 10 |  | > 10 |  | > 10 |  | > 10
Oc1cccc(-c2nc(-c3ccccc3)[nH]c2-c2ccncc2)c1 | 9.31 | 24.3 | 8.82 | > 25 | 10.2 | > 25 | 9.11 | > 25 | 9.39 | > 23.4 | 11.8 | > 25 | 7.77 | 19.4 | 15.9 | > 25 | 16.3 | > 25 | > 25 | > 25
COC1=CC2CCN3Cc4cc5c(cc4C(C1O)C23)OCC5 (stereo not given) | 1.33 | 6.51 | 0.587 | 3.18 | 5.7 | > 32.7 | 2.47 | > 61.9 | 5.21 | > 100 | 28 | > 100 | 4.75 | > 25.7 | 1.06 | 6.08 | 2.56 | 21.2 | 3.94 | > 47
COc1c2ccccc2c(O)c2c(=O)ccn(C)c12 | 31.7 | > 100 | 2.02 | 11.3 | 12.2 | 61.5 | 17.2 | 66.4 | 16.5 | > 100 | 23.9 | > 100 | 3.25 | 18.7 | 6.79 | 22.1 | 7.67 | > 100 | 14.7 | 84.2
CC(=O)C(C=O)C(C)=O.CC(=O)CC(C)=O.CC(=O)CC(C)=O.[Ru] | 32.7 | > 100 | 13.6 | 80.3 | 0.0635 | 4.2 | 37.3 | > 100 | 15.6 | 69 | 16.4 | 55.1 | 30.4 | > 100 | 1.97 | 9.18 | 37.8 | > 100 | 7.27 | 69.5
CC[C@@]1(O)C(=O)NCc2c1cc1n(c2=O)Cc2cc3c(NC(C)=O)cccc3nc2-1 | > 100 | > 100 | > 100 | > 100 | > 100 | > 100 | > 100 | > 100 | > 86.6 | > 100 | > 100 | > 100 | > 100 | > 100 | > 100 | > 100 | > 100 | > 100 | > 100 | > 100
CN1CCN(c2ccc(Nc3ncc4cc5n(c4n3)C3(CCCCC3)CNC5=O)nc2)CC1 | 4.15 | > 100 | 0.589 | 10.4 | 1.71 | 8.8 | 1.53 | 17 | 0.166 | 11.8 | 9.01 | 31.5 | 0.0651 | 3.04 | 1.5 | 12.2 | 3.43 | 17.2 | 3.35 | 8.97
COc1cc(NC(=O)c2ccccc2Nc2ccnc(C(F)(F)F)c2)cc(OC)c1OC | 17.7 | 91.9 | 75.6 | > 100 | 58.8 | > 100 | > 100 | > 100 | > 100 | > 100 | 38.2 | > 100 | 44.3 | > 100 | 52.9 | > 100 | 95.4 | > 100 | 43.5 | > 100
CNCCN(C)Cc1cn[nH]c1-c1ccc(OC2CC(OCCC3CCOCC3)C2)cc1 (stereo not given) | 27.8 | > 100 | 60.1 | > 100 | 63.1 | > 100 | > 100 | > 100 | > 100 | > 100 | > 100 | > 100 | > 80.1 | > 100 | > 100 | > 100 | > 100 | > 100 | 54.2 | > 100
OCc1ccc(N(Cc2ccc(F)cc2)CC2CCC2)cc1Cl | 2.11 | 12.2 | 14.7 | 29.2 | 17.3 | 40.3 | 12.3 | 25.8 | 7.02 | 21 | 12.7 | 27.1 | 12.1 | 28.9 | 12 | 24.7 | 15 | 28.5 | 17.5 | 32.3
COC(=O)C1(C)CCCC2(C)c3cc(OC)ccc3C(=O)C(Br)C12 (stereo not given) |  | > 10 |  | > 10 |  | > 10 |  | 4.21 |  | 4.39 |  | 5.25 |  | 4.2 |  | > 10 |  | > 10 |  | > 10
N[C@@H](CSSC[C@H](N)C(=O)N1CCn2cc(-c3ccccc3)nc2[C@@H]1CC1CCCCC1)C(=O)N1CCn2cc(-c3ccccc3)nc2[C@@H]1CC1CCCCC1 | 0.543 | 2.02 | 1.34 | 2.99 | 3.1 | > 100 | 2.12 | 4.52 | 1.24 | 3.36 | 1.68 | 3.39 | 2.13 | > 19.7 | 1.62 | 3.56 | 2.45 | 8.65 | 2.23 | 3.91
COc1ccc2c(c1)N(CCO)C1=C(C(=O)OC1)C2c1ccc(OC)c(OC)c1 (stereo not given) | > 100 | > 100 | 4.89 | > 100 | 2.88 | 9.82 | 3.98 | > 100 | 3.21 | > 100 | 1.48 | 5.25 | 2.04 | 5.51 | 5.8 | > 100 | 3.01 | 9.38 | 2.98 | 9.74
Cc1[nH]n(-c2cccc(Cl)c2)c(=O)c1/C=C1\C=c2ccccc2=CC1=O | > 100 | > 100 | > 100 | > 100 | 32.6 | > 100 | 21.5 | 86.6 | > 100 | > 100 | > 100 | > 100 | > 100 | > 100 | > 100 | > 100 | 70 | > 100 | 27.3 | > 100

Source: PubChem BioAssay (NCI)
